These results are taken from patent publication US9751887B2, “Imidazo[1,2-b]pyridazine derivatives as kinase inhibitors” (Daiichi Sankyo Company, Limited, priority 2012, dated 2017).

In general, IC50 refers to the concentration that gives 50% inhibition.

Assay [1] relates to HCC78 cells having ROS1 fusion gene. Put plainly: HCC78 cell growth assay (CellTiter-Glo). In kind it is cell-based. The settings on record: Homo sapiens, HCC78, 72 h, 72 hours culture, 2% FBS medium, luminescence, four separate measurements; read-out: growth inhibitory effect on HCC78 cells having ROS1 fusion gene IC50. (In general: In ATP-based viability assays light output follows the ATP content of the culture.)

Assay [2] concerns the target T1, ROS1 (Homo sapiens, UniProt P08922).
T1 construct: purchased Carna Biosciences 08-163
In words: ROS1 kinase inhibitory activity evaluation (mobility shift, EZ Reader II). In kind it is biochemical. The settings on record: ROS1 25 pg/μL, FL-Peptide 22 substrate, three separate measurements. Here is the method: Next, a substrate reaction solution was prepared. […] Then, the reaction stop solution was added thereto at a concentration of 40 μL/well. Substrate phosphorylation intensity was measured using EZ Reader II (Caliper Life Sciences).

Assay [3] has as its target T1, ROS1. Put plainly: ROS1 autophosphorylation inhibitory activity evaluation (ADP-Glo). In kind it is biochemical. Particulars: 200 nM inactive ROS1, ATP 1 mM, 25° C. 1.5 hours, ADP generated, four separate measurements. The method, boiled down:
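IC50 was derived by curve fitting of ADP output measured with ADP-Glo reagents. The output reflects ROS1 self-phosphorylation over 1.5 hours at 25° C. Buffer was HEPES pH 7.5 with MgCl2, Brij-58 and DTT, and ATP was 1 mM final.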
A general note: ADP-Glo turns the ADP formed in a reaction into a luminescent signal.

Counter-ions that a name gives are not always drawn.

T1 sequence (P08922 28-2347): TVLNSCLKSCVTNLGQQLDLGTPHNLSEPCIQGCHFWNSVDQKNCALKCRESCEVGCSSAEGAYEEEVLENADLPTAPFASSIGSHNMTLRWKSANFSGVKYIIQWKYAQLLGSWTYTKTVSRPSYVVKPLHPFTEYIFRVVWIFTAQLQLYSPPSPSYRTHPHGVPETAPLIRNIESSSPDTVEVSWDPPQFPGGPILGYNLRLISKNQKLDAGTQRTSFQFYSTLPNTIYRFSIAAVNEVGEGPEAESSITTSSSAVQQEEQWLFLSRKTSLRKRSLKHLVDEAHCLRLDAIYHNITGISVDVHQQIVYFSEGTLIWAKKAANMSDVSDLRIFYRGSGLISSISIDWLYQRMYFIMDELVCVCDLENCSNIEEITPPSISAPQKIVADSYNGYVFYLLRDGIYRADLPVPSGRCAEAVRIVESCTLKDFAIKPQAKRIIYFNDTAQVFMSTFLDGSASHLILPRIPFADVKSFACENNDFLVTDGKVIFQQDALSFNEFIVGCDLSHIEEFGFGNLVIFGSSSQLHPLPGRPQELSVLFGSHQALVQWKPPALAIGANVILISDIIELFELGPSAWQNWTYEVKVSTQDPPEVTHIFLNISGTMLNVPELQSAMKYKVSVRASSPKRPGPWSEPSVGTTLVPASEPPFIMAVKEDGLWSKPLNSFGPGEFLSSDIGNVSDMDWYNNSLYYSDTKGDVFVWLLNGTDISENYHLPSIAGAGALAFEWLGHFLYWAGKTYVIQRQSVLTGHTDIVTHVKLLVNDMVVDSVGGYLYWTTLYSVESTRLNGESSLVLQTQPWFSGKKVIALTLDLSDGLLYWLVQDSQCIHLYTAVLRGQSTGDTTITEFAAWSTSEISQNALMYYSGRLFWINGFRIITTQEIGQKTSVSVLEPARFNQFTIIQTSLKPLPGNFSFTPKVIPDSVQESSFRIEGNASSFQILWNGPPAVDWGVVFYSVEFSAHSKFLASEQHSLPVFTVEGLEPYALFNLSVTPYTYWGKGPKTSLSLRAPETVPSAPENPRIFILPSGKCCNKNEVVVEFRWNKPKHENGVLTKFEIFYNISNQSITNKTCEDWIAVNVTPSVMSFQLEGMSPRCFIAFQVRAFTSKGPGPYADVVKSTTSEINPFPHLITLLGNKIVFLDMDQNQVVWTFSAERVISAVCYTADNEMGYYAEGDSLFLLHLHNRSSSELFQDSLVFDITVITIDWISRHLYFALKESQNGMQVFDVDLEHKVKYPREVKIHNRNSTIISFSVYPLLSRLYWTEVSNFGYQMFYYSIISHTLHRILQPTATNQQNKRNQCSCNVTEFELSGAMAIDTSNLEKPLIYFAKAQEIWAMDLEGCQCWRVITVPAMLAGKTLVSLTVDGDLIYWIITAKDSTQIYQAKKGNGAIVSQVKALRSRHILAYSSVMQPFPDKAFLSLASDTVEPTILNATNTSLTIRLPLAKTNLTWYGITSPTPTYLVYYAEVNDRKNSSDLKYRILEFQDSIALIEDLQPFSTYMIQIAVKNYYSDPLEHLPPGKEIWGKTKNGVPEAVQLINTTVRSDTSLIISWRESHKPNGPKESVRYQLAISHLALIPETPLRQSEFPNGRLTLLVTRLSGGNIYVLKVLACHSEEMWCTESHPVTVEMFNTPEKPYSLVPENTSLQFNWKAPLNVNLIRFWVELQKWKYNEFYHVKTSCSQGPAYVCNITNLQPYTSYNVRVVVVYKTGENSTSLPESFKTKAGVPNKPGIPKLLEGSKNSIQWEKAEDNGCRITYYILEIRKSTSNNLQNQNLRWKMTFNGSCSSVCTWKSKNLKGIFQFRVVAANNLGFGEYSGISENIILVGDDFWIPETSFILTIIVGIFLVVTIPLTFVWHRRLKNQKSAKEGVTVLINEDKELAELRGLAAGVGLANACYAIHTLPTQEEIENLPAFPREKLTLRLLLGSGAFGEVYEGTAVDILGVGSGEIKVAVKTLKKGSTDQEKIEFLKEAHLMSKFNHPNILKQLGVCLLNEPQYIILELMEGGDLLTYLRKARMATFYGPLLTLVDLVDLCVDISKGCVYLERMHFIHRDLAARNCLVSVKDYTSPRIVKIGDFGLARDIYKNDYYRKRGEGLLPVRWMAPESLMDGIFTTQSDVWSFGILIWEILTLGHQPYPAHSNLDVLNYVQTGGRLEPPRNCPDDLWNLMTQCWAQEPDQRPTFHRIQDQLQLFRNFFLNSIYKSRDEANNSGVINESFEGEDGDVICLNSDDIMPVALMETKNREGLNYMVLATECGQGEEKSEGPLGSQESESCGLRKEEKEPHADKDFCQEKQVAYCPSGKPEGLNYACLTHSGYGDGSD

With `C[C@@H](Oc1ccc2ncc(-c3ccc(OC[C@@H]4CCN4)cc3)n2n1)c1cccc(F)c1` [Example 18, 3-[4-[[(2S)-Azetidin-2-yl]methoxy]phenyl]-6-[(1R)-1-(3-fluorophenyl)ethoxy]imidazo[1,2-b]pyridazine hydrochloride], the values for the IC50 (in assay [1]; at ROS1 [2]; on ROS1 [3]) were 20 to 100 nM, less than 1 nM and 20 to 100 nM, respectively.
Take `CNCCOc1cccc(-c2cnc3ccc(N[C@H](C)c4cccc(F)c4)nn23)c1` [Example 58, N-[(1R)-1-(3-Fluorophenyl)ethyl]-3-[3-[2-(methylamino)ethoxy]phenyl]imidazo[1,2-b]pyridazin-6-amine]: the results for the IC50 (in assay [1]; at ROS1 [2]; against ROS1 [3]) were 20 to 100 nM, 1 to 10 nM and less than 20 nM, respectively.
For `C[C@@H](N)COc1ccc(-c2cnc3ccc(N[C@H](C)c4cccc(F)c4)nn23)cn1` [Example 53, 3-[6-[(2R)-2-Aminopropoxy]-3-pyridyl]-N-[(1R)-1-(3-fluorophenyl)ethyl]imidazo[1,2-b]pyridazin-6-amine], the IC50 is less than 20 nM in assay [1], less than 1 nM on ROS1 [2] and less than 20 nM on ROS1 [3].
Turning to `c1ccc(CNc2ccc3ncc(-c4ccc(OC[C@@H]5CCCN5)cc4)n3n2)cc1` [Example 1, N-Benzyl-3-[4-[[(2S)-pyrrolidin-2-yl]methoxy]phenyl]imidazo[1,2-b]pyridazin-6-amine], the values for the IC50 (in assay [1]; on ROS1 [2]; against ROS1 [3]) were 20 to 100 nM, 1 to 10 nM and 20 to 100 nM, respectively.
With `C[C@@H](Nc1ccc2ncc(-c3ccc(OC[C@@H]4CCCN4)c(C#N)c3)n2n1)c1cccc(F)c1` [Example 48, 5-[6-[[(1R)-1-(3-Fluorophenyl)ethyl]amino]imidazo[1,2-b]pyridazin-3-yl]-2-[[(2S)-pyrrolidin-2-yl]methoxy]benzonitrile], the concentration for half-maximal inhibition (IC50) in assay [1] is less than 20 nM; on ROS1 [2], less than 1 nM; on ROS1 [3], less than 20 nM.
For `C[C@@H](Nc1ccc2ncc(-c3ccc(OCCNCCO)cc3)n2n1)c1cccc(F)c1` [Example 42, 2-[2-[4-[6-[[(1R)-1-(3-Fluorophenyl)ethyl]amino]imidazo[1,2-b]pyridazin-3-yl]phenoxy]ethylamino]ethanol], the results for the IC50 (in assay [1]; at ROS1 [2]; against ROS1 [3]) were less than 20 nM, less than 1 nM and less than 20 nM, respectively.
For the compound `CC(Oc1ccc2ncc(-c3ccc(N4C[C@@H](N)CC4=O)cc3)n2n1)c1cccc(F)c1F` (stereo partly drawn) [Example 102, (4S)-4-Amino-1-[4-[6-[1-(2,3-difluorophenyl)ethoxy]imidazo[1,2-b]pyridazin-3-yl]phenyl]pyrrolidin-2-one], the IC50 was 100 to 600 nM in assay [1], 1 to 10 nM on ROS1 [2] and less than 20 nM at ROS1 [3].
For `CC(Oc1ccc2ncc(-c3ccc(N4C[C@@H](N)CC4=O)cc3)n2n1)c1cc(F)ccc1-n1nccn1` (stereo partly drawn) [Example 114, (4S)-4-Amino-1-[4-[6-[1-[5-fluoro-2-(triazol-2-yl)phenyl]ethoxy]imidazo[1,2-b]pyridazin-3-yl]phenyl]pyrrolidin-2-one], in that order: 20 to 100 nM, less than 1 nM and less than 20 nM.
As to `CC(Oc1ccc2ncc(-c3ccc(N4C[C@@H](N)CC4=O)cc3)n2n1)c1cc(F)ccc1F` (stereo partly drawn) [Example 104, (4S)-4-Amino-1-[4-[6-[1-(2,5-difluorophenyl)ethoxy]imidazo[1,2-b]pyridazin-3-yl]phenyl]pyrrolidin-2-one], the results for the IC50 (in assay [1]; at ROS1 [2]; against ROS1 [3]) were 20 to 100 nM, less than 1 nM and less than 20 nM, respectively.
For `CN(Cc1cccc(F)c1)c1ccc2ncc(-c3ccc(N4C[C@@H](N)CC4=O)c(F)c3)n2n1` [Example 83, (4S)-4-Amino-1-[2-fluoro-4-[6-[(3-fluorophenyl)methyl-methylamino]imidazo[1,2-b]pyridazin-3-yl]phenyl]pyrrolidin-2-one], in that order: 20 to 100 nM, 1 to 10 nM and 20 to 100 nM.
For `Cc1cc(-c2cnc3ccc(OC(C)c4cncc(F)c4)nn23)ccc1N1C[C@@H](N)CC1=O` (stereo partly drawn) [Example 111], in that order: 20 to 100 nM, 1 to 10 nM and 20 to 100 nM.
For `CN(Cc1cc(F)ccc1F)c1ccc2ncc(-c3ccc(N4C[C@@H](N)CC4=O)cc3)n2n1` [Example 97, (4S)-4-Amino-1-[4-[6-[(2,5-difluorophenyl)methyl-methylamino]imidazo[1,2-b]pyridazin-3-yl]phenyl]pyrrolidin-2-one], in that order: less than 20 nM, 1 to 10 nM and 20 to 100 nM.
With `CN(Cc1cccc(C#N)c1)c1ccc2ncc(-c3ccc(N4C[C@@H](N)CC4=O)cc3)n2n1` [Example 121, 3-[[[3-[4-[(4S)-4-Amino-2-oxopyrrolidin-1-yl]phenyl]imidazo[1,2-b]pyridazin-6-yl]-methylamino]methyl]benzonitrile], the IC50 in assay [1] is 20 to 100 nM; on ROS1 [2], 1 to 10 nM; on ROS1 [3] it was 20 to 100 nM.
For `CN(Cc1cncc(F)c1)c1ccc2ncc(-c3ccc(N4C[C@@H](N)CC4=O)c(C#N)c3)n2n1` [Example 130], the half-maximal inhibitory concentration (IC50) lay within 100 to 600 nM in assay [1], 10 to 60 nM at ROS1 [2] and 20 to 100 nM at ROS1 [3].
For `C[C@@H](Nc1ccc2ncc(-c3ccc(OCCNC4CC4)cc3)n2n1)c1cccc(F)c1` [Example 37, 3-[4-[2-(Cyclopropylamino)ethoxy]phenyl]-N-[(1R)-1-(3-fluorophenyl)ethyl]imidazo[1,2-b]pyridazin-6-amine], in that order: 20 to 100 nM, less than 1 nM and 20 to 100 nM.
Consider `CN(Cc1cncc(Cl)c1)c1ccc2ncc(-c3ccc(N4CC(C)(N)CC4=O)cc3)n2n1` (stereo not drawn) [Example 123, 4-Amino-1-[4-[6-[(5-chloro-3-pyridyl)methyl-methylamino]imidazo[1,2-b]pyridazin-3-yl]phenyl]-4-methylpyrrolidin-2-one], for which the IC50 in assay [1] was in the range of 20 to 100 nM; on ROS1 [2] it was 10 to 60 nM; at ROS1 [3], 100 to 150 nM.
For `CC[C@H](N)COc1ccc(-c2cnc3ccc(N[C@H](C)c4cccc(F)c4)nn23)cc1` [Example 49, 3-[4-[(2S)-2-Aminobutoxy]phenyl]-N-[(1R)-1-(3-fluorophenyl)ethyl]imidazo[1,2-b]pyridazin-6-amine], the IC50 was less than 20 nM in assay [1], less than 1 nM at ROS1 [2] and less than 20 nM on ROS1 [3].
On to `C[C@@H](Nc1ccc2ncc(-c3ccc(OC[C@@H]4C[C@H](F)CN4)nc3)n2n1)c1cccc(F)c1` [Example 47, N-[(1R)-1-(3-Fluorophenyl)ethyl]-3-[6-[[(2S,4S)-4-fluoropyrrolidin-2-yl]methoxy]-3-pyridyl]imidazo[1,2-b]pyridazin-6-amine], for which the figures for the IC50 (in assay [1]; on ROS1 [2]; at ROS1 [3]) were less than 20 nM, less than 1 nM and less than 20 nM, respectively.
Take `C[C@H](N)COc1cccc(-c2cnc3ccc(N[C@H](C)c4cccc(F)c4)nn23)c1` [Example 65, 3-[3-[(2S)-2-Aminopropoxy]phenyl]-N-[(1R)-1-(3-fluorophenyl)ethyl]imidazo[1,2-b]pyridazin-6-amine]: the figures for the IC50 (in assay [1]; at ROS1 [2]; against ROS1 [3]) were 20 to 100 nM, 1 to 10 nM and less than 20 nM, respectively.
Consider `C[C@@H](Nc1ccc2ncc(-c3ccc(OCC(N)CO)cc3)n2n1)c1cccc(F)c1` (stereo partly drawn) [Example 45, 2-Amino-3-[4-[6-[[(1R)-1-(3-fluorophenyl)ethyl]amino]imidazo[1,2-b]pyridazin-3-yl]phenoxy]propan-1-ol], for which the IC50 is less than 20 nM in assay [1], less than 1 nM at ROS1 [2] and less than 20 nM against ROS1 [3].
